Data: patent US11932870B2, “Compositions and methods for immune cell modulation in adoptive immunotherapies” (Fate Therapeutics, Inc., priority 2016, dated 2024)
“Also recorded” adds a separate entry of the source.

Assays:
viable CD4+ population = test: T cell compound screen: CCR7+CD62L+ cells in the viable CD4+ population (flow cytometry); format: cell-based, human; settings: 10 μM, about 6 days, anti-CD3/anti-CD28 beads; hit = Z-score > +2 for percent or absolute number CCR7+CD62L+ in CD4+
Description: (§1) In Vitro T Cell Culture. Fresh leukopaks (AllCells, Alameda, CA) were obtained from healthy donors, from which T cells were negatively selected using the EasySep Human T cell Enrichment Kit (Stem Cell Technologies, Vancouver, Canada). The freshly isolated T cells were aliquoted and cryopreserved. On the day the screens were initiated, T cells were thawed and washed into X-Vivo 15 with 5% human AB serum, IL-2, pen/strep, and additional supplements. Cells were dispensed into flat-bottom 384-well plates at 5×10^5 cells/ml with anti-CD3/anti-CD28 beads. Individual compounds were added at a final concentration of 10 μM to each well from column 3 to column 22 of each plate. Positive and negative controls were added to additional wells. Cells were incubated for about 6 days at 37 degrees with 5% CO2.
(§2) Flow Cytometry. On Day 6 of culture, cells were stained with a fixable viability marker and fluorophore-conjugated antibodies: CD3, CD4, CD8, CD45RA, CD45RO, CD62L, CCR7, CD27, and CD122 (BD Biosciences, San Jose, CA; and BioLegend, San Diego, CA). Fluorescent absolute counting beads (Spherotech, Lake Forest, IL) were added just prior to acquisition. Data acquisition was performed on a BD Fortessa X-20 (BD Biosciences) and data were analyzed using Treestar software (FlowJo, Ashland, OR) and Spotfire (Tibco, Boston, MA).
(§3) These cells are characterized by expression of CCR7 and CD62L. Therefore, cells co-expressing both of these identifying markers were evaluated. Within the viable CD4+ population and viable CD8+ population, the percent of cells co-expressing CCR7 and CD62L was determined. The expression of either CD62L or CCR7 on T cells, as indicative of the desired T cell subsets, have been described as having favorable functional characteristics for CAR-T cell therapy, and potentially other adoptive T cell therapies.
(§4) The number of events in each of these gates relative to the number of absolute counting beads in each sample was calculated, defining a measure of the absolute number of naïve, stem cell memory, or central memory T cells within the CD4+ and/or CD8+ populations. A z-Score relative to the screened compound samples within each 384-well plate was calculated for each of these four values: 1) percent CCR7+CD62L+in CD4+, 2) percent CCR7+CD62L+in CD8+, 3) absolute relative number of CCR7+CD62L+in CD4+, and 4) absolute number of CCR7+CD62L+in CD8+(FIGS. 1A and 1i). Z-scores were also calculated for the percent viability of all cells within each sample and the relative absolute number of cells within each sample. A “Z-Score” is a statistical measurement of a score's relationship to the mean in a group of scores. AZ-score of 0 means the score is the same as the mean. AZ-score can also be positive or negative, indicating whether it is above or below the mean and by how many standard deviations.

viable CD8+ population = test: T cell compound screen: CCR7+CD62L+ cells in the viable CD8+ population (flow cytometry); format: cell-based, human; settings: 10 μM, about 6 days, anti-CD3/anti-CD28 beads; hit = Z-score > +2 for percent or absolute number CCR7+CD62L+ in CD8+
Description: as §1, §2, §3, §4

Nalm-6-luc tumor cells = test: In vivo tumor clearance by compound-treated CD19 CAR-T cells; settings: NSG mice with Nalm-6-luc; 2.0×10^5 cryopreserved compound-treated CAR-T cells per animal (1:1 CD4:CD8); imaging; FIGS. 7 and 8
Method: NSG mice were injected with Nalm-6-luc, a CD19+ human tumor line engineered to express firefly luciferase. CAR-T cells were generated from CD4+ and CD8+ T cells that were separately activated and expanded in vitro. The cells were transduced with the CAR-2 construct (FIG. 2) one day after activation and then replated into 24-well GREX plates with or without the compounds. Half the media was replaced every two days thereafter until harvest one week post-activation. Cells were cryopreserved and then thawed for use. NSG mice were infused with tumor cells followed […] by CAR-T transfer via retroorbital injection. Four days after IV. injection with Nalm-6-luc cells, mice were treated with 2.0×10^5 CAR-T cells per animal (1:1 CD4:CD8). The mice were imaged periodically to determine tumor burden.

CNC(=O)c1cc(Oc2ccc(NC(=O)Nc3cc(C(C)(C)C)nn3-c3ccc4ncccc4c3)c(F)c2)ccn1 [DCC-2036, Rebastinib]
CD4 Hit (viable CD4+ population): CD4
CD8 Hit (viable CD8+ population): CD8
tumor burden / tumor control (Nalm-6-luc tumor cells): dramatically reduced tumor burden; also recorded: able to clear tumor from the majority of mice
